# US20080027005A1, “PEPTIDES EFFECTIVE IN THE TREATMENT OF TUMORS AND OTHER CONDITIONS REQUIRING THE REMOVAL OR DESTRUCTION OF CELLS” (priority 2006, published 2008)
# Where no end group is shown, it is not given here.
# Tested on: prostate
# Assay: Effect of S05B Peptides on tissue at sites of injection: intraprostatic infusion in rats, histology and prostate volume
# Format: in vivo, Male Sprague-Dawley rats
# Conditions: for Histological findings in prostate of treated rats: rat prostate after intraprostatic infusion 1.0 mg/kg, controls minimal or absent changes; for Calculated Mean Volume (mm^3) At 7 Days / Reduction in Mean Volume Compared to Controls / Histological Changes of Cell Death at 24 Hours / Histological Changes of Cell Death at 72 Hours: rat prostate; for Calculated Mean Volume (mm^3) At 7 Days: 7 days after intraprostatic infusion 1.0 mg/kg, V=4/3π(D/2)^3 from mean cross-sectional diameters, PBS control 519; for Reduction in Mean Volume Compared to Controls: 7 days, compared to PBS injection only; for Histological Changes of Cell Death at 24 Hours / Histological Changes of Cell Death at 72 Hours: intraprostatic infusion 300 μl of 1 mg/mL in PBS pH 7.4 (1.0 mg/kg), H & E sections
# Description: The purpose of this example was to determine the effect of S05B Peptides on tissue at sites of injection.
# Male Sprague-Dawley rats (300 gram weight range) were anesthetized with ether and given one of the above S05B Peptides by intraprostatic infusion, a control injection of normal saline or no injection after open surgical visualization of the prostate. The injections consisted of 300 μl of the S05B Peptide 1 mg/mL in PBS pH 7.4. (1.0 mg/kg) (n=85). Rats were painlessly sacrificed after 24 hours (n=18), 72 hours (n=35) and 7 days (n=32). Prostate glands were dissected, fixed in 10% buffered formalin for 24 hours, embedded in paraffin, sectioned, and stained with H & E. For each animal the entire prostate gland was embedded and sectioned. All stained sections were examined histologically. For each prostate at least 2 histological sections were examined, and for each histological section from the 7 day group two cross-sectional diameters (D) at 90° from each other were measured (total of >8 measurements per prostate). The mean of the cross-sectional diameters (D) for each group was used to estimate volume according to V=4/3π(D/2)^3 and the mean volume calculated for each group. Histological changes were assessed on the following scale:
# +++ Present, Moderate and Diffuse
# ++++ Present, Diffuse and Extensive
Substance,Histological findings in prostate of treated rats,Calculated Mean Volume (mm^3) At 7 Days [mm^3],Reduction in Mean Volume Compared to Controls [%],Histological Changes of Cell Death at 24 Hours,Histological Changes of Cell Death at 72 Hours
DQQVLSRI [S05B-3],"extensive cell death, necrosis, loss of glandular epithelium and atrophy",289,44,+++,+++
DQQVLS [S05B-2],"extensive cell death, necrosis, loss of glandular epithelium and atrophy",289,44,+++,+++
IDQQVL [S05B-4],"extensive cell death, necrosis, loss of glandular epithelium and atrophy",358,31,++,++
